Reference: PMC10005075, “Study on Absorption, Distribution and Excretion of a New Candidate Compound XYY-CP1106 against Alzheimer’s Disease in Rats by LC-MS/MS” (Molecules, 2023)
“Also recorded” adds a separate entry of the source. Like-named read-outs stand apart in the source and are kept apart here.

How the values were obtained:
[1] = system: scopolamine-induced AD mouse model; set-up: method as in PMID 31325784; settings: scopolamine-induced AD mice, intraperitoneal injection 10 mg/kg; cited from earlier work
[2] = system: MAO-B; set-up: method as in PMID 31325784; settings: cited from earlier work
[3] = Excretory study (urine and feces) after oral administration; assay type: in vivo; settings: rats
Experimental: After the collected feces were dried at room temperature, a pestle and mortar were used to uniformly crush the feces collected at each time slot. Then, 0.2 g of ground feces were accurately weighed into a 5.0 mL centrifuge tube, 4 mL of methanol solution was added and then it was put into the ultrasonic instrument for ultrasonic extraction for 4 h. Then, 100 μL of feces samples were added into a 1.5 mL centrifuge tube. Next, it was treated the same as the plasma samples.
Urine samples were collected and processed directly. An aliquot of 100 µL of urine sample was taken and processed in the same manner as the plasma samples.
Ten rats were fed with freely available food and water and fasted with free access to water for 12 h before drug administration. They were given a single dose of XYY-CP1106 (15 mg/kg, 1.0 mg/mL) and then put into metabolic cages. Feces and urine were collected at 0–4, 4–8, 8–12, 12–24, 24–36, 36–48, 48–60, 60–72, 72–84 and 84–96 time slots, respectively. The feces collected at each time slot were air-dried to record their weight and stored in a refrigerator at −20 °C before use. The urine volume was recorded at each time slot and stored in a refrigerator at −20 °C before use.

[4] = set-up: method as in PMID 31325784; settings: chelating ability for Fe^3+; cited from earlier work
[5] = Tissue distribution study after oral administration; assay type: in vivo, Sprague-Dawley (SD) rats; settings: rats, oral 15 mg/kg
Experimental: The tissue sample was weighed and cut into pieces. Normal saline was added to brain tissue at the ration of 1:1 (g: mL) and other tissues at the ration of 1:3 (g: mL). The tissue homogenate was symmetrically placed in a tissue homogenizer to obtain tissue homogenate.
Amount of 0.5 mL of tissue homogenate and 1.5 mL of acetonitrile were added into a 5 mL centrifuge tube for protein precipitation by vortex, and 1 mL of vortex solution was added into a 1.5 mL centrifuge tube and centrifuged at 13,000 revolutions at for 10 min 4 °C. Then, 900 μL supernatant and 100 μL IS working solution were added into a 1.5 mL centrifuge tube to vortex for 30 s. It was centrifuged twice under the same conditions; then, the supernatant (5 μL) was injected into the LC-MS/MS system.
Thirty SD rats were randomly divided into 5 groups (n = 6), fed with freely available food and water and fasted with free access to water for 12 h before drug administration. All rats were weighed and recorded. The 5 groups of rats were given a single oral dose (15 mg/kg) of XYY-CP1106 (1.0 mg/mL) and sacrificed with cervical dislocation at 0.25, 1, 2, 4 and 8 h, respectively. The heart, liver, spleen, lungs, kidneys and brain of the rats were quickly removed, and the blood was carefully rinsed off with physiological saline (0.9%). The normal saline on the surface of all tissue samples was dried with filter paper then stored in a refrigerator at −80 °C.

[6] = Stability in plasma, tissues, feces and urine under storage conditions; set-up: species or system rat; settings: automatic sampler 24 h; three freeze–thaw cycles −20 °C to room temperature; −20 °C for 30 days
Experimental: The stability of XYY-CP1106 standard in plasma, tissues, feces and urine biological samples under different storage conditions was analyzed, including the stability of samples stored at room temperature for 24 h in an automatic sampler, the freeze–thaw stability after three cycles (−20 °C to room temperature was defined as a cycle), and −20 °C for the last 30 days. When the deviation from the standard value was within 15% (low concentration was within 20%), the sample was considered stable. The concentration of standard substance in plasma was 10 and 160 ng/mL. The standard concentration in tissues, feces and urine was 10 and 800 ng/mL.

[7] = Plasma pharmacokinetic study after oral and tail vein administration; assay type: in vivo, Sprague-Dawley (SD) rats; set-up: clearance: unit not given here; settings: rats; for AUC(0-t): read-out: AUC0–24
Experimental: Non-compartmental calculations were performed using the PK Solver plug-in (China Pharmaceutical University, Nanjing, China) to estimate the main pharmacokinetic parameters. All values were expressed as the mean ± standard deviation.
Amounts of 100 μL plasma, 100 μL IS working solution (1000 ng/mL), 100 μL aqueous solution containing 0.2% formic acid and 700 μL ice methanol for protein precipitation were successively added into the 1.5 mL centrifuge tube, and it was vortexed for 30 s. Then, it was centrifuged at 13,000 rpm for 10 min at 4 °C, and the upper clarifying solution was extracted and placed in a new 1.5 mL tube and was centrifuged again under the same conditions. Five microliters of the sample were measured and injected into the LC-MS/MS system for analysis.
For oral administration, six SD rats were fed with freely available food and water and fasted with free access to water for 12 h before drug administration. The rats in each group were weighed and recorded; then, the oral dose was 15 mg/kg. The average weight of rats was 200 ± 30 g. At 0.083, 0.25, 0.5, 0.75, 1, 2, 4, 6, 8, 12 and 24 h after oral administration, 0.3 mL of blood samples were collected from the suborbital vein and put into a 1.5 mL heparin sodium tube. The collected plasma sample was centrifuged at 4 °C for 10 min at 3500 revolutions, and 100 μL of supernatant was taken and stored at −20 °C for future use.
For tail vein injection, six SD rats were weighed and recorded; then, XYY-CP1106 (0.384 mg/mL, 1.92 mg/kg) filtered by a 0.22 µm filter membrane was administered via tail vein injection. An amount of 0.3 mL of blood samples were collected from the suborbital vein into heparin sodium tubes at 0.083, 0.25, 0.5, 0.75, 1, 2, 4, 6, 8, 12 and 24 h after caudal intravenous administration. The collected plasma samples were treated in the same way as oral administration.
The oral absolute bioavailability (F) in rats was calculated according to the following equation:F = (AUCoral(0–∞) × Doseiv)/(AUCiv(0–∞) × Doseoral) × 100%,(1)

[8] = Solubility in water; assay type: physicochemical
Experimental: A certain amount of XYY-CP1106 was weighed and dissolved completely in methanol. β-cyclodextrin aqueous solution was added to make it 50% methanol and 30% β-cyclodextrin solution. Then, it was placed in ultrasound for 4 h under an ultrasonic bath after vortex. Next, it was freeze-dried for 2 days; then, it was redissolved in PBS solution to the final concentration of 1.0 mg/mL.

[9] = Sprague-Dawley, rat, plasma, iv, I.V (tail vein) 1.92 mg/kg, n = 6
[10] = Sprague-Dawley, rat, plasma, po, P.O 15 mg/kg, n = 6

Cc1c(O)c(=O)ccn1Cc1cc2ccc(OCc3cccc(F)c3)cc2oc1=O [XYY-CP1106]
effect on behavioral and cognitive impairment (water maze) [1]: could significantly alleviate the behavioral and cognitive impairment of mice | IC50 [2]: 14.7 nM | time of maximum excretion rate in feces ([3]; 15 mg/kg by gavage): 8 to 12 h | time of maximum excretion rate in urine ([3]; 15 mg/kg by gavage): 4 to 12 h | excretion through urine, % of the dose ([3]; 15 mg/kg by gavage, within 24 h): 0.01 ± 0.00% | excretion through feces, % of the dose ([3]; 15 mg/kg by gavage, within 72 h): 31.14 ± 0.05% | average cumulative excretion through feces ([3]; oral 15 mg/kg, prototype drug): 0.94 ± 0.14 mg | pFe^3+ [4]: 18.04 | concentration at 2 h ([5]; Sprague-Dawley, rat, brain, 2 h after administration): 501 ± 260 ng/g | blood–brain barrier penetration ([5]; detected in brain tissue, 15 mg/kg): could pass through the blood–brain barrier; also recorded: could penetrate the blood–brain barrier; also recorded: penetrating the BBB | main tissues of distribution ([5]; heart, liver, spleen, lung, kidney, brain, 0.25-8 h): mainly distributed in the liver and kidneys | stability in biological matrices [6]: stable | Tmax ([7]; Sprague-Dawley, rat, plasma, 15 mg/kg, oral administration, read-out: time to maximum plasma concentration (converted)): 0.75 h | AUC(0-inf) [7, 9]: 599 ± 31.8 ng·h/mL | Cmax [7, 9]: 691 ± 120 ng/mL | clearance [7, 9]: 0.0268 | half-life [7, 9]: 3.5 ± 2.24 h | AUC(0-t) [7, 9]: 540 ± 43.7 ng·h/mL | Tmax ([7]; Sprague-Dawley, rat, plasma, iv, I.V (tail vein) 1.92 mg/kg, n = 6, read-out: Tmax): 0.083 h | half-life ([7]; Sprague-Dawley, rat, plasma, oral, P.O 15 mg/kg, n = 6): 8.26 to 10.1 h | Tmax ([7]; Sprague-Dawley, rat, plasma, oral, P.O 15 mg/kg, n = 6, read-out: Tmax): 0.57 to 0.93 h | bioavailability ([7]; Sprague-Dawley, rat, plasma, po, P.O 15 mg/kg vs I.V 1.92 mg/kg, from AUC0–∞, read-out: absolute oral bioavailability (F)): 10.7 ± 1.72% | AUC(0-inf) [7, 10]: 503 ± 77.7 ng·h/mL | Cmax [7, 10]: 153 ± 15.9 ng/mL | half-life [7, 10]: 9.16 ± 0.9 h | AUC(0-t) [7, 10]: 428 ± 66.1 ng·h/mL | V ([7]; I.V (tail vein) 1.92 mg/kg, n = 6): 0.00403 ± 0.0018 L/kg | V ([7]; P.O 15 mg/kg, n = 6): 0.4017 ± 0.06959 L/kg | water solubility [8]: low water solubility; also recorded: almost insoluble in water
